The values that follow come from PubChem BioAssay (NCI).

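Each compound was tested at five concentrations against cells in 96-well plates for 48 hours. At the GI50, growth is halved. TGI: total growth inhibition.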 Bounds are passed on as bounds.

Among the test systems are CCRF-CEM leukemia; K-562 leukemia; HOP-62 NSCLC; OVCAR-5 ovarian; HOP-92 NSCLC; A498 renal; NCI-H522 lung; LOX IMVI melanoma; MDA-MB-231 breast; NCI-H226 lung.
Common to all, as to experiment: DTP human tumour cell line panel, 48 h

As usually defined, the GI50 is the concentration giving 50% growth inhibition. In general, TGI refers to the concentration at which net growth stops. Read a low TGI as more potent growth arrest. Regarding `O=C(Nc1ccc(Cl)cc1F)c1ccccc1O`, the GI50 in the assay with CCRF-CEM leukemia was 3.47 µM; in the assay with K-562 leukemia, 3.5 µM; in the assay on HOP-62 NSCLC it was 2.74 µM; in the assay with OVCAR-5 ovarian, 3.04 µM; in the assay with HOP-92 NSCLC it was 1420 nM; in the assay on A498 renal it was 2.22 µM. The GI50 with NCI-H522 lung was 2.45 µM; in the assay with LOX IMVI melanoma, 2.95 µM; with MDA-MB-231 breast, 1.44 µM; in the assay on NCI-H226 lung, 2.23 µM. The TGI with CCRF-CEM leukemia is more than 100 µM; in the assay on K-562 leukemia, more than 100 µM; with HOP-62 NSCLC, 21.7 µM; in the assay with OVCAR-5 ovarian, more than 100 µM; in the assay on HOP-92 NSCLC, 4.59 µM; in the assay with A498 renal, 6.29 µM. Further, the TGI came to 30 µM with NCI-H522 lung, 10.4 µM with LOX IMVI melanoma, 3.79 µM in the assay on MDA-MB-231 breast and 8.85 µM with NCI-H226 lung.
As for `CC(CCC=O)CCOCc1ccccc1` (centres undefined), the total growth inhibition concentration (TGI) was more than 84.2 µM in the assay with CCRF-CEM leukemia; more than 100 µM in the assay with K-562 leukemia; more than 100 µM with HOP-62 NSCLC; more than 100 µM in the assay with OVCAR-5 ovarian; more than 100 µM in the assay with HOP-92 NSCLC; more than 100 µM in the assay with A498 renal. The concentration for total growth inhibition (TGI) in the assay on NCI-H522 lung was more than 100 µM; in the assay on LOX IMVI melanoma, more than 91.2 µM; in the assay with MDA-MB-231 breast, more than 100 µM; in the assay on NCI-H226 lung, more than 100 µM.
Regarding `O=c1c2sc(=S)n(-c3ccc(F)cc3)c2ncn1Cc1ccc(F)cc1F`, the GI50 in the assay on CCRF-CEM leukemia is more than 100 µM; in the assay on K-562 leukemia, more than 100 µM; with HOP-62 NSCLC, more than 100 µM; in the assay with OVCAR-5 ovarian, more than 100 µM; in the assay on HOP-92 NSCLC, 44800 nM; with A498 renal, more than 100 µM. In addition, the GI50 in the assay with NCI-H522 lung, with LOX IMVI melanoma, with MDA-MB-231 breast and with NCI-H226 lung was more than 100 µM in each case. In addition, the TGI in the assay with CCRF-CEM leukemia, in the assay on K-562 leukemia, in the assay with HOP-62 NSCLC, in the assay on OVCAR-5 ovarian, in the assay with HOP-92 NSCLC and with A498 renal was more than 100 µM throughout. Further, the TGI in the assay with NCI-H522 lung, in the assay on LOX IMVI melanoma, in the assay on MDA-MB-231 breast and in the assay on NCI-H226 lung was more than 100 µM each time.
`CS(=O)(=O)Nc1ccc2c(c1)oc(=O)c1ccccc12`: the concentration for total growth inhibition (TGI) in the assay on CCRF-CEM leukemia, in the assay on K-562 leukemia, in the assay on HOP-62 NSCLC, in the assay on OVCAR-5 ovarian, in the assay on HOP-92 NSCLC and with A498 renal was more than 100 µM each time. The TGI with NCI-H522 lung, with LOX IMVI melanoma, in the assay with MDA-MB-231 breast and with NCI-H226 lung was more than 100 µM each time.
As to `CC(O)CCC(=O)c1ccoc1` (centres undefined), the TGI was more than 9360 µM in the assay with CCRF-CEM leukemia; more than 10000 µM in the assay with K-562 leukemia; more than 10000 µM in the assay with HOP-62 NSCLC; more than 10000 µM in the assay with OVCAR-5 ovarian; 8000 µM in the assay on HOP-92 NSCLC; 9940 µM with A498 renal. The TGI in the assay with NCI-H522 lung was 8270 µM; with LOX IMVI melanoma, more than 10000 µM; in the assay with MDA-MB-231 breast, more than 10000 µM; in the assay with NCI-H226 lung, more than 10000 µM.
Take `O=C(OC(CNc1cc(=O)n(Cc2ccccc2)c(=O)n1Cc1ccccc1)CN1CCCC1)c1ccccc1` (centres undefined): the GI50 in the assay on CCRF-CEM leukemia is 23.7 µM; with K-562 leukemia, 92.1 µM; with HOP-62 NSCLC it was more than 100 µM; in the assay on OVCAR-5 ovarian it was more than 100 µM; with A498 renal, more than 100 µM; in the assay with NCI-H522 lung, more than 100 µM. The values for the GI50 in the assay with LOX IMVI melanoma, in the assay with MDA-MB-231 breast and in the assay on NCI-H226 lung were more than 100 µM, 75.3 µM and 81.8 µM, respectively. Also, the concentration for total growth inhibition (TGI) in the assay with CCRF-CEM leukemia, in the assay on K-562 leukemia, with HOP-62 NSCLC, in the assay with OVCAR-5 ovarian, in the assay on A498 renal and in the assay with NCI-H522 lung was more than 100 µM throughout. Besides, the total growth inhibition concentration (TGI) in the assay on LOX IMVI melanoma, in the assay on MDA-MB-231 breast and with NCI-H226 lung was more than 100 µM throughout.
Regarding `NC(=O)NC1C(c2ccccc2)=C1c1ccccc1`, the TGI with CCRF-CEM leukemia was more than 100 µM; in the assay with K-562 leukemia, 43.1 µM; with HOP-62 NSCLC, more than 100 µM; with OVCAR-5 ovarian, 64.4 µM; in the assay on HOP-92 NSCLC, 38.1 µM; in the assay on A498 renal it was 39.9 µM. In addition, the TGI with LOX IMVI melanoma amounted to 38.4 µM; in the assay on MDA-MB-231 breast, 38.2 µM; in the assay with NCI-H226 lung it was 25.1 µM.
For `C=C1C(=O)O[C@@H]2C[C@@H]1CC/C(C)=C/CC/C(C)=C/CC[C@@]2(C)O`, the GI50 in the assay on K-562 leukemia is 4.7 µM; with OVCAR-5 ovarian it was 22.1 µM; in the assay on HOP-92 NSCLC, 3960 nM; with A498 renal, 23.4 µM; with NCI-H522 lung it was 6.36 µM; in the assay with LOX IMVI melanoma it was 5.49 µM. For the same compound, the figures for the GI50 in the assay with MDA-MB-231 breast and with NCI-H226 lung were 8.56 µM and 4.54 µM, respectively. The concentration for total growth inhibition (TGI) in the assay with K-562 leukemia was 17.3 µM; in the assay with OVCAR-5 ovarian, 39.4 µM; with HOP-92 NSCLC it was 19.8 µM; in the assay on A498 renal, 41.3 µM; in the assay with NCI-H522 lung, 23.7 µM; in the assay on LOX IMVI melanoma it was more than 100 µM. The TGI worked out at 31.8 µM in the assay on MDA-MB-231 breast and 22.2 µM in the assay on NCI-H226 lung.
As for `Cc1ccc(C)c(C2=C(c3cn(C)c4ccccc34)C(=O)NC2=O)c1`, the GI50 in the assay with CCRF-CEM leukemia is 5.42 µM; in the assay with K-562 leukemia, 15.1 µM; in the assay on HOP-62 NSCLC, 12.1 µM; in the assay with OVCAR-5 ovarian, more than 25 µM; in the assay on A498 renal, more than 12.1 µM; in the assay on NCI-H522 lung, more than 25 µM. The GI50 is more than 19.5 µM with LOX IMVI melanoma, more than 25 µM in the assay with MDA-MB-231 breast and more than 25 µM in the assay on NCI-H226 lung. For the same compound, the TGI was more than 25 µM in the assay with CCRF-CEM leukemia; more than 25 µM in the assay with K-562 leukemia; more than 25 µM with HOP-62 NSCLC; more than 25 µM with OVCAR-5 ovarian; more than 22.8 µM in the assay on A498 renal; more than 25 µM in the assay with NCI-H522 lung. In addition, the TGI with LOX IMVI melanoma, with MDA-MB-231 breast and in the assay on NCI-H226 lung was more than 25 µM each time.
In the case of `O=C1/C(=C/c2ccc(Br)cc2)COc2ccc(O)c(O)c21`, the GI50 was 0.462 µM with CCRF-CEM leukemia; 0.282 µM with K-562 leukemia; 1.5 µM with OVCAR-5 ovarian; 1260 nM with HOP-92 NSCLC; 2.97 µM in the assay with A498 renal; 0.158 µM in the assay on NCI-H522 lung. Besides, the GI50 with LOX IMVI melanoma was 0.261 µM; with MDA-MB-231 breast it was 0.682 µM; with NCI-H226 lung, 2.01 µM. The total growth inhibition concentration (TGI) in the assay with CCRF-CEM leukemia is more than 100 µM; in the assay with K-562 leukemia, more than 100 µM; with OVCAR-5 ovarian, 3.04 µM; in the assay with HOP-92 NSCLC, 5.49 µM; in the assay with A498 renal, 7.75 µM; in the assay on NCI-H522 lung, 0.348 µM. Moreover, the concentration for total growth inhibition (TGI) with LOX IMVI melanoma came out at 0.807 µM; in the assay with MDA-MB-231 breast, 2.27 µM; in the assay on NCI-H226 lung, 5.52 µM.
